Laboratory results published in patent US10342782B2, “Positive allosteric modulators of the muscarinic acetylcholine receptor M4” (Vanderbilt University, priority 2016, dated 2019).

Molecular target: T1, Human M4 (Homo sapiens, UniProt P08173)
T1 sequence (P08173 1-479): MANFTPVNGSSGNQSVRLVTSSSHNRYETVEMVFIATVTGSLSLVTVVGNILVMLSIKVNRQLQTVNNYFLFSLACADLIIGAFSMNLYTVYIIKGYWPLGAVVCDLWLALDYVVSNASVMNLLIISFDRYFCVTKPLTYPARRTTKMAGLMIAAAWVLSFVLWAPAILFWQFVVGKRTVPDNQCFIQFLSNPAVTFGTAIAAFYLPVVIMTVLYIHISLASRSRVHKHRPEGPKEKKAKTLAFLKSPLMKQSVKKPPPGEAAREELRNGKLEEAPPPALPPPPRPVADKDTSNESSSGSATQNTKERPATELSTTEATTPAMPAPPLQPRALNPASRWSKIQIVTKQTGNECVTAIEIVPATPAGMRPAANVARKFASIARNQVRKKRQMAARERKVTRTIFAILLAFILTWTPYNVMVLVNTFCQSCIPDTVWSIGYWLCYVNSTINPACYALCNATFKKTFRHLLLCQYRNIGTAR
Experiment: cell-based
Details: for Emax: CHO-K1
Experimental: Human M4 cDNA, along with the chimeric G protein Gqi5, were transfected into Chinese hamster ovary (CHO-K1) cells purchased from the American Type Culture Collection using Lipofectamine2000. M4/Gqi5/CHO cells were grown in Ham's F-12 medium containing 10% heat-inactivated fetal bovine serum (FBS), 20 mM HEPES, 500 μg/mL G418 sulfate, and 200 μg/mL Hygromycin B.
For high throughput measurement of agonist-evoked increases in intracellular calcium, CHO-K1 cells stably expressing muscarinic receptors were plated in growth medium lacking G418 and hygromycin at 15,000 cells/20 μL/well in Greiner 384-well black-walled, tissue culture (TC)-treated, clear-bottom plates (VWR). Cells were incubated overnight at 37° C. and 5% CO2. […] Test compound CRCs were then transferred to daughter plates (240 nL) using the Echo acoustic plate reformatter (Labcyte, Sunnyvale, Calif.) and then diluted into assay buffer (40 μL) to a 2× stock using a Thermo Fisher Combi (Thermo Fisher Scientific, Waltham, Mass.).
Calcium flux was measured using the Functional Drug Screening System (FDSS) 6000 or 7000 (Hamamatsu Corporation, Tokyo, Japan) as an increase in the fluorescent static ratio. Compounds were applied to cells (20 μL, 2×) using the automated system of the FDSS at 2-4 s into the protocol and the data were collected at 1 Hz. […] Agonist activity was analyzed as a concentration-dependent increase in calcium mobilization upon compound addition. Positive allosteric modulator activity was analyzed as a concentration-dependent increase in the EC20 acetylcholine response. Antagonist activity was analyzed as a concentration-dependent decrease in the EC80 acetylcholine response. Concentration-response curves were generated using a four-parameter logistical equation in XLFit curve fitting software (IDBS, Bridgewater, N.J.) for Excel (Microsoft, Redmond, Wash.) or Prism (GraphPad Software, Inc., San Diego, Calif.).

EC50 | Emax | Compound
217 nM | 86% | Cc1nc2cc(C)c3c(N)c(C(=O)NCc4ccc(N5CCN(C)CC5)cc4)sc3n2n1 [Compound 8, 6-amino-2,5-dimethyl-N-(4-(4-methylpiperazin-1-yl)benzyl)thieno[3,2-e][1,2,4]triazolo[1,5-a]pyridine-7-carboxamide]
863 nM | 79% | Cc1nc2cc(C)c3c(N)c(C(=O)NC4CN(c5ncc(C6CC6)cc5C)C4)sc3n2n1 [Compound 9, 6-amino-N-(1-(5-cyclopropyl-3-methylpyridin-2-yl)azetidin-3-yl)-2,5-dimethylthieno[3,2-e][1,2,4]triazolo[1,5-a]pyridine-7-carboxamide]
596 nM | 66% | Cc1nc2cc(C)c3c(N)c(C(=O)N[C@H]4CCN(c5ccc(F)cn5)C4)sc3n2n1 [Compound 12, (S)-6-amino-N-(1-(5-fluoropyridin-2-yl)pyrrolidin-3-yl)-2,5-dimethylthieno[3,2-e][1,2,4]triazolo[1,5-a]pyridine-7-carboxamide]
1200 nM | 43% | Cc1nc2cc(C)c3c(N)c(C(=O)N[C@@H]4CCN(c5ccc(F)cn5)C4)sc3n2n1 [Compound 15, (R)-6-amino-N-(1-(5-fluoropyridin-2-yl)pyrrolidin-3-yl)-2,5-dimethylthieno[3,2-e][1,2,4]triazolo[1,5-a]pyridine-7-carboxamide]
